Molecular target: T1, TAAR3 (Mus musculus, UniProt Q5QD16)
T1 construct: transiently expressed with Galpha-olf in HEK293 cells
T1 sequence (Q5QD16 1-343): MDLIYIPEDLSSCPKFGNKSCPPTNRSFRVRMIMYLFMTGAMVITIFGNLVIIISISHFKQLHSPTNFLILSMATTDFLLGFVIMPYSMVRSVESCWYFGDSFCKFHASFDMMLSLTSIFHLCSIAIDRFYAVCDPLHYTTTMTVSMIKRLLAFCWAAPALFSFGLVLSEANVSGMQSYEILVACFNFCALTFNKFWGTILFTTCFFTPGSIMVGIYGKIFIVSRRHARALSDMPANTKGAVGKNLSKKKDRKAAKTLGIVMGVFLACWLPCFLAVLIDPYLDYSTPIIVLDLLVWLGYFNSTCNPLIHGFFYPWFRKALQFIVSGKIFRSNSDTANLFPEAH
Experiment: cAMP accumulation, HEK293 cells, luminescence
Assay type: cell-based

`CC(C)CN` [isobutylamine] was tested. Which EC50 did it give?
Its EC50 is 32 nM.
